Structures can show the parent of a compound that is named as a salt. Where two headings read alike, the source gives them in different places.
Assays:
[1] = in cats; cited from earlier work
GHB receptors = GHB receptors (Rattus norvegicus, UniProt P11275); assay: Displacement of 3H-GHB binding on rat brain membranes; design: species or system Wistar rats
slow wave sleep = assay: EEG study of the duration of slow wave sleep in rats after i.p. injection; format: in vivo, Male Wistar rats; conditions: for Duration of slow wave sleep: 3 h EEG recording, mean ± SEM; for Increase of the duration of slow wave sleep: versus NaCl
From the text: Male Wistar rats, weighing 200 g at the beginning of the experiment, coming from the Centre d'Elevage Janvier (Route des Chenes-Secs, Le Genest St-Isle, 53940 France) were used for this study.
After eight days of adaptation to the breeding conditions at the Animalerie Centrale de la Faculte de Medecine (11, rue Humann 67084 Strasbourg), these animals were placed in individual cages (Makrolon type cages 3H, 425×266×150) in a standard (7 a.m./7 p.m.) day/night rhythm, with water and food (UAR ref. A04) continually available to them. The animals were then transferred to an experimentation facility on supports capable of receiving 24 cages.
The surgical procedure is the following: after one month of becoming accustomed to the (10 a.m./10 p.m.) day/night cycle, the rats are weighed and then anesthetized with ketamine (Imalgene 500 Merial) at a dose of 150 mg/kg i.p. After having placed the animal in a stereotactic frame (Narishige), a rostrocaudal incision is made using a sterilized scalpel (No. 3 blade, Swann-Morton England).
The parietal bone sutures, Lambda and Bregma, are exposed serve as stereotactic reference (point 0). After having perforated the cranial casing using a dental drill without infringing on the meninges (Minitor Narishige), two stainless steel screws 500 μm in diameter (Magister, 4 rue du Lac 25130 Villers Le Lac) are implanted at the following coordinates: Bregma AP: ±4 mm and ML: ±3 mm.
Two copper wires are soldered with tin to the screws, on one hand, and to the female connector, on the other hand (VP Electronic, Square de la Poteme, 91302 Massy Cedex). The assembly which is realized is then covered with a polymerizing resin (Paladur, Kulzer, Germany).
The implanted rats are then placed in their respective cages. A post-operative period greater than 48 h is complied with before any recording.
All the EEG recordings are made during the first hours of the dark [sic; light] phase (that is, between 10 a.m. and 1 p.m.), which represents the period of awakening and intense activity of the animals.
The rats are placed in a cage made of Plexiglas (170×170×300), and after a 30 min period of becoming accustomed to their new environment, they are recorded continuously for a duration of 3 h after i.p. injection (2 mL/kg) of 0.9% NaCl or the ligand to be studied. The EEG graph is made using an 8-track recorder (Alvar Electronic, 6 rue du Progres, 93511-Montreuil) with a running speed of 0.5 cm/s.
The total durations of slow wave sleep for each animal are evaluated in 20 min sections for the total duration of the 3 h recording (1 cm=2 seconds).
The statistical comparison is made using an analysis of variance test (Anova) followed by a multiple comparison test. […]
The numbers in parentheses correspond to the percentages of slow wave sleep with respect to the total duration of sleep.

[2] = read-out: IC50 (concentration displacing 50% of the reversible binding of 3H-GHB), rat brain membranes, potassium phosphate buffer pH 6.0, 30 min in ice

Chain of GHB receptors (P11275 whole entry): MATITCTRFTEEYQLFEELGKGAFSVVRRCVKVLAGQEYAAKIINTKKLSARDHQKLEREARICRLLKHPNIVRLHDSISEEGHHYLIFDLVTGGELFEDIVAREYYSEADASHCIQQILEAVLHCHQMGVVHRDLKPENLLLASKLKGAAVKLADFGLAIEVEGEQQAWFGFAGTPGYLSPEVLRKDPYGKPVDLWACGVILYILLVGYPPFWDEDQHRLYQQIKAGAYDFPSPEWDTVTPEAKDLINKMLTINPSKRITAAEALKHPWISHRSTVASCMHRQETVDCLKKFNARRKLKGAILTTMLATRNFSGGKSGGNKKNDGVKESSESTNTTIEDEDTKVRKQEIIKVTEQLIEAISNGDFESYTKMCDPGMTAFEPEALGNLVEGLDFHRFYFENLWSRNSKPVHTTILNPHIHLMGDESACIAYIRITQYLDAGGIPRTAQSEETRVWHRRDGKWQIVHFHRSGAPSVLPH

O=C(O)CCCO [GHB, γ-hydroxybutyrate]
half-life [1]: approximately one

Sodium salt of 4-hydroxy-4-(phenoxathiin-2 or 3-yl) butanoic acid isomer B [Compound 29]
IC50 (GHB receptors; [2]): 900 nM

Sodium salt of 4-hydroxy-4-(phenoxathiin-2 or 3-yl)butanoic acid isomer A [Compound 28]
IC50 (GHB receptors; [2]): 100 nM

O=C(O)CCC(O)c1ccc2c(c1)-c1ccccc1C2 (centres unmarked) [Compound 32, Sodium salt of 4-(9H-fluoren-3-yl)hydroxybutanoic acid]
IC50 (GHB receptors; [2]): 300 nM

CC1(C)Cc2cc(C(O)CCC(=O)O)ccc2NC1=O (centres unmarked) [Compound 40, Sodium salt of 4-(3,3-dimethyl-2-oxo-1,2,3,4-tetrahydroquinolin-6-yl)-4-hydroxybutanoic acid]
IC50 (GHB receptors; [2]): 1100 nM

O=C([O-])CCC(O)c1cc2c3c(cccc3c1)CC2.[Na+] (centres unmarked) [Compound 24, Sodium salt of 4-(1,2-dihydroacenaphthylen-4-yl)-4-hydroxybutanoic acid]
IC50 (GHB receptors; affinity for the GHB receptor, repeated in Table 4, read-out: IC50): 80 nM
IC50 (GHB receptors; [2]): 80 nM
Percentage of slow wave sleep with respect to the total duration of sleep (in parentheses) (slow wave sleep; 0.15 mmol/kg i.p.): 23%
Duration of slow wave sleep (slow wave sleep; 0.15 mmol/kg i.p.): 53 ± 7 min
Increase of the duration of slow wave sleep (slow wave sleep; 0.15 mmol/kg i.p.): 42 min
Percentage of slow wave sleep with respect to the total duration of sleep (in parentheses) (slow wave sleep; 0.28 mmol/kg i.p.): 28%
Duration of slow wave sleep (slow wave sleep; 0.28 mmol/kg i.p.): 61 ± 8 min
Increase of the duration of slow wave sleep (slow wave sleep; 0.28 mmol/kg i.p.): 50 min

O=C(O)CCC(O)c1ccc(Cl)c(Cl)c1 (centres unmarked) [Compound 2, Sodium salt of 4-(3,4 dichlorophenyl)-4-hydroxybutanoic acid]
Percentage of slow wave sleep with respect to the total duration of sleep (in parentheses) (slow wave sleep; 0.28 mmol/kg i.p.): 23%
Duration of slow wave sleep (slow wave sleep; 0.28 mmol/kg i.p.): 53 ± 7 min
Increase of the duration of slow wave sleep (slow wave sleep; 0.28 mmol/kg i.p.): 42 min

Sodium salts of 4-hydroxy-4-(4-oxo-4,5-dihydro-3H-pyridazo(4,5-b)indol-8 and 6-yl)butanoic acids 8/6 isomer mixture [Compound 33]
IC50 (GHB receptors; [2]): 200 nM

From patent US20050113366A1 (priority 2000, published 2005)
